Patent US20160319324A1, “MODULATORS OF GLYCEROPHOSPHODIESTER PHOSPHODIESTERASE PROTEINS” (THE JOHNS HOPKINS UNIVERSITY, priority 2013, published 2016)

Assays:
GDE3 = biological target: T1, GDE3 (Homo sapiens, UniProt Q9HCC8); test: validation and site of action of candidate drugs from fresh powder by western blot analysis and surface biotinylation assay; type: cell-based; details: for release of CNTFR into the medium: HEK293T cells transfected with Luc-CNTFR and GDE3; for release of CNTFR into the medium / expression and localization of CNTFR and GDE3: 10 μM in 0.1% DMSO, 24 hours treatment; for expression and localization of CNTFR and GDE3: western blot banding pattern and surface biotinylation
T1 construct: expressed in transfected cells; host or cells: HEK293T
T1 sequence (Q9HCC8 1-539): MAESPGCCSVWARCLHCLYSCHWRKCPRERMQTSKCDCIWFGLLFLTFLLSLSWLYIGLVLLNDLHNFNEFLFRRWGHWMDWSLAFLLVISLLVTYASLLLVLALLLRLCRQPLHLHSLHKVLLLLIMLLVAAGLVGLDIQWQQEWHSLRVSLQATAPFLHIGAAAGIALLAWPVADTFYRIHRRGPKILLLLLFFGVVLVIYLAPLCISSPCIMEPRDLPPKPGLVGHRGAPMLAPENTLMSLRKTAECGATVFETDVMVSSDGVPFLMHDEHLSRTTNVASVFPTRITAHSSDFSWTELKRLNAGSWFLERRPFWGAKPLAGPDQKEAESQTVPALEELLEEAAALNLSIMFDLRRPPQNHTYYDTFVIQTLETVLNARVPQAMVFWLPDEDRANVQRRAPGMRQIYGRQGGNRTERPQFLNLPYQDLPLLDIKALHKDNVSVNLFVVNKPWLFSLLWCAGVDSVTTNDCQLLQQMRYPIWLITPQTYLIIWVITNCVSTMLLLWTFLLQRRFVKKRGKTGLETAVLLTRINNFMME
Experimental: FIG. 10. Validation and identification of the site of action of candidate drugs. Drugs hit by a high-throughput screening were prepared from the fresh powders and their activity was tested by established western blot analysis. […] Concentration of drugs=10 μM.
HEK293T cells were cultured in DMEM with 10% FBS on polyethyleneimine (PEI)-coated 12 well plates and transfected using Fugene6 agent (Roche). 24 hours after transfection, medium was changed to serum free DMEM and cells were incubated for an additional 24 hours. Medium and cell lysates were collected separately, and secretion and expression of proteins were analyzed by western blot and quantified using ImageJ (NIH). Antibodies used in Western analyses were rabbit-anti Jag1 (1:1000, Santa Cruz); rabbit anti-CRD (1:250, gift from Paul Englund) and mouse anti-myc (1.5 μg/ml for IP, DSHB) and as described.
Surface biotinylation assay was performed as previously described (29). Briefly, thirty hours after transfection of HEK293T cells with RECK/GDE and CreER constructs, cells were cooled on ice, washed twice with ice cold PBS++(1×PBS, 1 mM CaCl2, 0.5 mM MgCl2) and then incubated with PBS++ containing 1 mg/ml Sulfo-NHS-SSBiotin (Pierce) for 30 min at 4° C. Unreacted biotin was quenched by PBS++ containing 100 mM Glycine. Cultures were harvested in RIPA buffer, sonicated, and centrifuged at […] for 20 min at 4° C. The supernatant was rotated with Streptavidin beads (Pierce) for 2 hr at 4° C. Precipitates were washed with RIPA buffer three times and eluted with SDS gel loading buffer.
Currently, specific pharmacological modulators for GPI-AP cleavage have not been identified due to poor characterization of GPI-AP cleaving enzymes and the absence of an in vitro assay system. The robust GPI-AP cleaving activity of 6-TM GDEs has allowed the establishment of a luciferase-based, high throughput drug screening assay (signal to noise ratio=44.6; signal to background ratio=7.0; Z′ score=0.6: an excellent assay category). Measuring the GDE3-dependent release of GPI-anchored luciferase into the medium, the present inventors screened 3,360 compounds of the Johns Hopkins Drug library (JHDL), which contains FDA approved and phase II clinical trial drugs. The present inventors have selected common hits, which reduce or increase the release of luciferase activity into the medium more than 3 standard deviations of DMSO controls from duplicated experiments and identified 163 inhibitors (4.9%) and 138 activators (4.1%). Since the assay targets the whole GPI synthesis pathway as well as GPI cleaving activity, it is crucial to identify the site of action. Candidate drugs could modulate different steps of synthesis and cleavage of GPI-APs and will be categorized as follow: drugs activate or inhibit (i) the GPI biosynthesis machinery, (ii) glycosylation, (iii) surface expression of GPI-AP or GDE3, (iv) GPI cleaving activity of GDE, or (v) GPI cleaving-independent secretion of GPI-AP. Among 163 inhibitors, 23 drugs have been prepared from fresh powder stocks and their sites of action were tested by established western blot analyses and results are as follows: 10 drugs (no effect), 9 drugs (reducing surface expression and/or glycosylation of GPI-APs), and 4 drugs (inhibiting GPI-cleaving activity).
JHDL was used to screen drugs that affect the release of Luc-CNTFR into the medium. Drugs that increase or decrease the release index more than 3 SD of 16 DMSO controls of each plate were selected. Common hits of duplicated independent experiments were further analyzed. Among 3,360 drugs screened, we have identified 163 inhibitors and 138 activators. Among 163 inhibitors, 23 compounds were prepared from a fresh powder and their site of action was analyzed (10 μM in 0.1% DMSO, 24 hours treatment). To test whether drugs affect glycosylation and/or surface expression of CNTFR or GDE3, banding pattern of Western blot analysis and surface biotinylation assay were performed (FIG. 10). […]

[1] = biological target: Luc-CNTFR (firefly) [luciferase: P08659]; test: cell-based or functional assay
[2] = Concentration of drugs=10 μM, western blot

Luc-CNTFR (firefly) [luciferase: P08659], sequence (P08659 whole entry): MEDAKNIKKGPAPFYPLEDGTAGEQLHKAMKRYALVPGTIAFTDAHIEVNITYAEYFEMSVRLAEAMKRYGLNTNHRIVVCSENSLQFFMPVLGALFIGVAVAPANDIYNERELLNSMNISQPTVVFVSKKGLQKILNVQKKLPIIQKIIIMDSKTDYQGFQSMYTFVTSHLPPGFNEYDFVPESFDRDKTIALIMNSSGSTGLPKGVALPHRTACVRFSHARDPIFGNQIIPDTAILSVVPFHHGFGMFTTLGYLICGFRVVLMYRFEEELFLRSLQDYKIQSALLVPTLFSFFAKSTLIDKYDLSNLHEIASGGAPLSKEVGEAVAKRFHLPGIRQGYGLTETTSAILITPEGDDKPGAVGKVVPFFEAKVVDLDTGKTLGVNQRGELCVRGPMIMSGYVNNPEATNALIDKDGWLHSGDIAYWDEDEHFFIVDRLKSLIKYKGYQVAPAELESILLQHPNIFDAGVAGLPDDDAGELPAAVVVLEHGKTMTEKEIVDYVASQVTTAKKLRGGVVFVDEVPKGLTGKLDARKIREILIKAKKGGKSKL

| Molecule | release of CNTFR into the medium (GDE3; western blot) | expression and localization of CNTFR and GDE3 (GDE3) | further results |
| --- | --- | --- | --- |
| O=C(O)CCC(=O)c1ccc(-c2ccccc2)cc1 [fenbufen] | increase the release of CNTFR into the medium |  |  |
| N[C@@H](Cc1cc(I)c(Oc2cc(I)c(O)c(I)c2)c(I)c1)C(=O)O [thyroxine] | inhibitor of the release of CNTFR | without affecting expression and localization of CNTFR and GDE3 |  |
| vitamin B12 | inhibitor of the release of CNTFR | without affecting expression and localization of CNTFR and GDE3 |  |
| GDE3 (enzyme) |  |  | release index (luciferase activity in the medium/cell lysate) [1]: 7 fold |
| COc1ccc(CN(CCN(C)C)c2ccccn2)cc1 [pyrilamine] | increase the release of CNTFR into the medium |  |  |
| CCCCCCCCC(=O)NCc1ccc(O)c(OC)c1 [nonivamide] | inhibitor of the release of CNTFR | without affecting expression and localization of CNTFR and GDE3 |  |
| CN1[C@@H]2CC[C@H]1C[C@@H](OC(c1ccccc1)c1ccccc1)C2 [benzotropine] |  |  | glycosylation pattern of CNTFR (GDE3; [2]): affect glycosylation pattern of CNTFR |
| CC[C@H]1OC(=O)[C@H](C)[C@@H](O[C@H]2C[C@@](C)(OC)[C@@H](O)[C@H](C)O2)[C@H](C)[C@@H](O[C@@H]2O[C@H](C)C[C@H](N(C)C)[C@H]2O)[C@](C)(O)C[C@@H](C)C(=O)[C@H](C)[C@@H](O)[C@]1(C)O [erythromycin] | inhibitor of the release of CNTFR | without affecting expression and localization of CNTFR and GDE3 | lysate level of CNTFR (GDE3; [2]): without affecting the lysate level; release of CNTFR into the medium (GDE3; western blot, listed as Erythromycin): inhibits the release of CNTFR |
| COc1c(C)c2c(c(O)c1C/C=C(\C)CCC(=O)O)C(=O)OC2 [mycophenolic acid] |  |  | glycosylation pattern of CNTFR (GDE3; [2]): affect glycosylation pattern of CNTFR |
